Measurements as given in US11680264B2, “Methods of modulating melanosome pH and melanin level in cells” (Cornell University, priority 2016, dated 2023).

How the values were obtained:
[1] = tested on: C3H/HeJ mice; assay: Topical treatment of epilated back skin, hair pigmentation; type: in vivo, mouse
Method: Therefore, experiments were performed to determine whether inhibition of sAC in animals could alter hair pigmentation. Animal experiments were performed in accordance with approved Institutional Animal Care and Use Committee protocol at Weill Cornell Medicine. Age and gender matched C3H/HeJ mice (female, 7 weeks old) were purchased from The Jackson Laboratory. For the analysis of hair pigmentation, the upper and lower dorsum of each mouse were epilated using hair removal wax. 10 μl of KH7 (42 mg/ml in DMSO), LRE1 (28 mg/ml in DMSO) or DMSO (vehicle control) was topically applied onto the upper back and DMSO was applied to the lower back three times a day over two weeks. These mice were monitored for changes in coat color as the epilated hair grew back. Hair was removed from each treated area after 3 weeks to measure the length of the total hair, apical black tip and subapical agouti (pheomelanin) band under a stereo microscope. Mice were euthanized and the treated skin was submitted to a blinded animal pathologist for histological evaluation of the epidermis and hair follicles. This experiment was performed twice with 3-4 mice per cohort (total n=6-7)

[2] = tested on: human melanocytes; assay: DAMP melanosome pH assay (HMB45 co-staining); type: cell-based; conditions: 4 hours, KH7 30 μM, cAMP 500 μM, H89 10 μM, ESI-09 10 μM
Method: (§1) N-{3-[(2,4-dinitrophenyl)amino]propyl}-N-(3-aminopropyl)methylamine dihydrochloride (DAMP) is a weakly basic amine that is taken up in acidic organelles of live cells and which has been used to measure melanosome pH (Bin et al., PLOS One, 10(6):e0129273 (2015); Tabata et al., Cell Tissue Res., 332(3): 447-460 (2008)). Cells were cultured on sterile glass coverslips in 24-mm wells at 50×10^3 cells/coverslip. […] After permeabilization with 0.1% Triton X-100 in Buffer A at −20° C., the cells were labeled with the supplied anti-DNP antibody (Oxford Biomedical Research) according to kit protocol. Melanosomes were identified using the monoclonal antibody (anti-HMB45, 1:40, Santa Cruz Biotechnology). Fluorescence was detected after secondary staining with Alexa Fluor 546 donkey anti-goat IgG antibody (Invitrogen) and Alexa Fluor 647 donkey anti-mouse IgG antibody (Invitrogen). All quantitative analyses were performed using the Object Count tool in Nikon AR 4.60. For each image, the lower intensity threshold limit of each fluorescence channel was defined as the intensity of the dimmest punctum returned using the 3 points circle threshold tool. The upper intensity threshold limit was set to the maximum value. Equivalent diameter (EqDiameter) was restricted to 1.85-30.00 pixels. Circularity was restricted to 0.20-1.00. Mean fluorescence intensity was measured for all DAMP^+ puncta. Melanosomes were identified as HMB45^+ puncta. DAMP measurements were only recorded when colocalized with HMB45. Frequency distributions were generated for each sample from mean DAMP fluorescence intensity of DAMP^+ melanosomes. All analyses were performed on two replicate coverslips (n≥15 cells per coverslip). Melanosomes were first identified as TRP1^+ or tyrosinase^+ puncta. sAC^+ melanosomes were identified as R52^+ or R21^+ puncta colocalizing with TRP1^+ or tyrosinase^+ puncta. The degree of colocalization between sAC and melanosomes was calculated as the number of sAC+ melanosomes divided by the total number of melanosomes and expressed as a percentage.
The effect of sAC inhibition on melanosome pH was also assessed in human melanocytes.

[3] = tested on: C3H/HeJ mice; assay: Topical treatment of ear, epidermal pigmentation (Fontana Masson); type: in vivo, mouse; conditions: topical on right ear, twice a day for two weeks
Method: Melanocytes also exist in the epidermis at specific areas of mouse skin (e.g., pinnae) (Nordlund et al., Dermatol Clin., 4(3): 407-418 (1986)); thus, these areas were studied to examine the role of sAC in epidermal pigmentation. For analysis of epidermal pigmentation, using C3H/HeJ mice as above, 20 μl of KH7 ([…]), LRE1 (28 mg/ml) or DMSO (vehicle control) was topically applied on the right ear and DMSO was topically applied on the left ear twice a day for two weeks. Ear skin was monitored daily for irritation and changes in pigmentation. After two weeks, mice were euthanized and the treated skin was submitted to a blinded animal pathologist for histological evaluation of the epidermis and special stains (Fontana Masson). This experiment was performed twice with 3 mice per cohort (total n=6)

[4] = tested on: sAC^KO mouse melanocytes; assay: DAMP melanosome pH assay (HMB45 co-staining); type: cell-based; conditions: 4 hours, KH7 30 μM, cAMP analogs 500 μM, ESI-09 10 μM, MSH 100 nM
Method: as §1
The effect of pharmacologic inhibition of sAC was also measured using the DAMP assay described above. Briefly, Cells were cultured on sterile glass coverslips in 24-mm wells at 50×10^3 cells/coverslip and treated or not treated for 4 hours with 30 μM KH7 or LRE1. […] After permeabilization with 0.1% Triton X-100 in Buffer A at −20° C., the cells were labeled with the supplied anti-DNP antibody (Oxford Biomedical Research) according to kit protocol. Melanosomes were identified using the monoclonal antibody (anti-HMB45, 1:40, Santa Cruz Biotechnology). Fluorescence was detected after secondary staining with Alexa Fluor 546 donkey anti-goat IgG antibody (Invitrogen) and Alexa Fluor 647 donkey anti-mouse IgG antibody (Invitrogen). All images were acquired using a Zeiss LSM 880 and analyzed using NIS-Elements AR 4.60 (Nikon).

[5] = topical on back, hair removed after 3 weeks

CC(Sc1nc2ccccc2[nH]1)C(=O)N/N=C/c1cc(Br)ccc1O (centres unmarked) [KH7]
eumelanin production in hair (microscopic examination) [1, 5]: increase in eumelanin production | length of the agouti (pheomelanin) band [1, 5]: reduction in length of the agouti (pheomelanin) band | histologic examination of treated skin ([1]; topical on back, two weeks): did not reveal any pathological change to the hair follicles or epidermis | colour of regrown hair versus vehicle control ([1]; topical on epilated back, 10 μl KH7 42 mg/ml or LRE1 28 mg/ml in DMSO, three times a day over two weeks): visual darkening of regrown hair | melanosome pH (DAMP), substance alone [2]: alkaline shift in melanosome pH | colour of ear epidermis relative to vehicle control ([3]; 20 μl KH7 or LRE1 (28 mg/ml)): induced visual darkening of mouse ear epidermis | epidermal melanin accumulation (Fontana Masson) [3]: increase in epidermal melanin accumulation | melanosome pH (DAMP), substance alone [4]: had no effect
